# Experimental data taken from patent publication US20200108034A1, “USE OF CITRULLINE AND GLUTATHIONE TO INCREASE MUSCLE MASS” (KYOWA HAKKO BIO CO., LTD., priority 2017, published 2020).
# What was measured:
# Format in all cases: in vivo, human
# [1] = Whole blood cell counts with differentials, day 0 and day 57; details: mean ± SEM; for Absolute basophils / Absolute eosinophils / Absolute lymphocytes / Absolute monocytes / Absolute neutrophils / Hb / Platelet / RBC / WBC: N = 25; for Red cell distribution width: N = 25, in % (unit assumed)
# Procedure: (§1) Seventy-five resistance-trained (e.g., regular, resistance training thrice weekly for at least one year prior to the study) males between the ages of 18-35 and having a BMI between 18.5 and 30 kg/m^2 were divided into 3 groups of 25, wherein each group received one of the following supplements: (A) 2 g/day L-citrulline (CIT) and 200 mg/day glutathione (GSH), (B) 2 g/day L-citrulline malate only, or (C) 2.52 g/day of cellulose placebo. Participants were matched by total body mass and then randomly assigned a supplementation protocol in a double-blind fashion. Participants took their supplements one hour prior to their workout on exercise days. On non-exercise days, participants took their supplements in the morning with breakfast.
# (§2) Venous blood samples were obtained from the antecubital vein using a standard VACUTAINER™ apparatus into one tube for serum separation and one for whole blood. The serum separation tubes were allowed to stand at room temperature for 15 minutes and then centrifuged for 10 minutes, and serum was removed and placed into a microfuge tube. Blood samples were obtained prior to the first dose of supplement and prior to beginning the resistance training program (day 0) and after eight weeks of supplementation and resistance training (day 57).
# (§3) Serum samples were assayed for the following general clinical chemistry markers: glucose, total protein, blood urea nitrogen, creatinine, BUN/creatinine ratio, AST, ALT, albumin, globulin, total bilirubin, alkaline phosphatase. Whole blood samples were assayed for standard cell blood counts with percentage differentials, such as hemoglobin, red blood cell counts, white blood cell counts, neutrophils, lymphocytes, monocytes, eosinophils, and basophils.
# [2] = Body composition (body mass, DEXA fat mass, bioimpedance total body water) at days 0, 29, 57; details: mean ± SEM, N = 25; for Fat Mass: DEXA; for Total Body Water: bioelectrical impedance
# Procedure: as §1
# (§4) Body composition was measured at days 0, 29, and 57 during the study. Total body mass (kg) was determined on a standard dual beam balance scale (Detecto, Bridgeview, Ill.). Percent body fat, fat mass, and fat-free mass were determined using DEXA (Discovery Series W, commercially available from Hologic, Waltham, Mass.). Quality control calibration procedures were performed on a spine phantom (X-CALIBER Model DPA/QDR-1 anthropometric spine phantom, commercially available from Hologic, Waltham, Mass.) and a density step calibration phantom prior to each testing session. Total body water was determined with bioelectrical impedance spectroscopy (Tanita Inc., Arlington Heights, Ill.) using a low energy, high frequency current (500 micro amps at a frequency of 50 kHz).
# Participants engaged in a supervised, periodized 4 day per week resistance-training program split into two upper and two lower extremity workouts per week for a total of 8 weeks. Prior to the workout, participants performed a standardized series of stretching exercises. The participants then performed an upper-body resistance-training program consisting of bench press, lat pull, shoulder press, seated row, shoulder shrugs, chest fly, biceps curl, triceps press down, and abdominal curls, twice per week, and a lower-body program consisting of leg press, back extension, step ups, leg curls, leg extension, heel raises, and abdominal crunches, also performed twice per week. Participants performed 3 sets of 10 repetitions with as much weight as they could lift per set (typically 70 to 80% of 1-RM). Rest periods between exercises and sets lasted no longer than 2 minutes.
# [3] = Serum general clinical chemistry markers, day 0 and day 57; details: mean ± SEM, N = 25
# Procedure: as §1, §2, §3
# [4] = Change in muscle mass after 8-week resistance training with supplementation
# Procedure: as §1
# as §4, with “Quality control calibration procedures were performed on a spine phantom (X-CALIBER Model DPA/QDR-1 anthropometric spine phantom, commercially available from Hologic, Waltham, Mass.) and a density step calibration phantom prior to each testing session.” left out, “kHz). […]” for “kHz).”
smiles,measurement,setting,value
"NC(=O)NCCC[C@H](N)C(=O)O.O=C(O)CC(O)C(=O)O [CIT-malate, L-citrulline malate]",Absolute basophils,[1]; 8 weeks,26.8 ± 3.2 µL⁻¹
same,Absolute eosinophils,[1]; 8 weeks,312.8 ± 79.5 µL⁻¹
same,Absolute lymphocytes,[1]; 8 weeks,1902.7 ± 85.5 µL⁻¹
same,Absolute monocytes,[1]; 8 weeks,370.5 ± 30.7 µL⁻¹
same,Absolute neutrophils,[1]; 8 weeks,3292.4 ± 318.9 µL⁻¹
same,Hb,[1]; 8 weeks,15.0 ± 0.1 g/dL
same,Platelet,[1]; 8 weeks,212.4 ± 8.0 ×10^3/μL
same,RBC,[1]; 8 weeks,5.1 ± 0.06 ×10^6/μL
same,WBC,[1]; 8 weeks,5.7 ± 0.3 ×10^3/μL
same,Red cell distribution width,[1]; 8 weeks,13.5 ± 0.4
same,Absolute basophils,[1]; Baseline,31.2 ± 3.3 µL⁻¹
same,Absolute eosinophils,[1]; Baseline,130.5 ± 16.6 µL⁻¹
same,Absolute lymphocytes,[1]; Baseline,2032.1 ± 131.4 µL⁻¹
same,Absolute monocytes,[1]; Baseline,371.8 ± 25.6 µL⁻¹
same,Absolute neutrophils,[1]; Baseline,3652.2 ± 306.1 µL⁻¹
same,Hb,[1]; Baseline,15.1 ± 0.2 g/dL
same,Platelet,[1]; Baseline,218.2 ± 10.9 ×10^3/μL
same,RBC,[1]; Baseline,5.1 ± 0.07 ×10^6/μL
same,WBC,[1]; Baseline,6.2 ± 0.3 ×10^3/μL
same,Red cell distribution width,[1]; Baseline,13.3 ± 0.1
same,Fat Mass,[2]; Baseline,11.2 ± 1.04 kg
same,Total Body Water,[2]; Baseline,47.9 ± 1.14 kg
same,Body Mass,[2]; Baseline,79.2 ± 2.50 kg
same,Fat Mass,[2]; supplementation week 4,11.5 ± 0.92 kg
same,Total Body Water,[2]; supplementation week 4,48.1 ± 1.16 kg
same,Body Mass,[2]; supplementation week 4,79.5 ± 2.52 kg
same,Fat Mass,[2]; supplementation week 8,11.9 ± 0.96 kg
same,Total Body Water,[2]; supplementation week 8,48.4 ± 1.14 kg
same,Body Mass,[2]; supplementation week 8,80.1 ± 2.42 kg
same,ALP,[3]; 8 weeks,73.0 ± 4.5 IU/L
same,ALT,[3]; 8 weeks,22.9 ± 1.8 IU/L
same,AST,[3]; 8 weeks,21.3 ± 1.3 IU/L
same,Albumin,[3]; 8 weeks,4.7 ± 0.05 g/dL
same,Albumin/Globulin,[3]; 8 weeks,1.9 ± 0.06
same,Bilirubin,[3]; 8 weeks,0.6 ± 0.05 mg/dL
same,Creatinine,[3]; 8 weeks,1.1 ± 0.04 mg/dL
same,Glucose,[3]; 8 weeks,101.8 ± 3.9 mg/dL
same,Total protein,[3]; 8 weeks,7.2 ± 0.1 g/dL
same,Urea nitrogen,[3]; 8 weeks,16.9 ± 0.7 mg/dL
same,ALP,[3]; Baseline,74.9 ± 4.5 IU/L
same,ALT,[3]; Baseline,24.9 ± 2.4 IU/L
same,AST,[3]; Baseline,23.8 ± 1.5 IU/L
same,Albumin,[3]; Baseline,4.9 ± 0.05 g/dL
same,Albumin/Globulin,[3]; Baseline,2.0 ± 0.07
same,Bilirubin,[3]; Baseline,0.7 ± 0.08 mg/dL
same,Creatinine,[3]; Baseline,1.1 ± 0.03 mg/dL
same,Glucose,[3]; Baseline,97.5 ± 3.4 mg/dL
same,Total protein,[3]; Baseline,7.4 ± 0.1 g/dL
same,Urea nitrogen,[3]; Baseline,16.8 ± 0.8 mg/dL
same,participants who displayed increases in muscle mass at both 4 and 8 weeks,"[4]; FIG. 2, 25 per group",36%
same,change in muscle mass,"[4]; at 4 and 8 weeks, vs placebo, heavy resistance training, FIGS. 1A and 1B",increase in muscle mass compared to persons receiving only placebo
